Reference: patent US6355799B1, “Substituted benzene compounds, process for their preparation, and herbicidal and defoliant compositions containing them” (ISK Americas Incorporated, priority 1997, dated 2002)

Legend:
Assay type in all cases: in vivo
[1] = test system: redroot pigweed (Amaranthus retroflexus, AMARE); assay: Pre-emerge test, greenhouse herbicide activity screening; details: phytotoxicity rating 0-100, 14 days after application
Method in brief: (§1)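 Sandy loam pots; pre-emerge: sown 1 d pre-spray, surface-watered after, then bottom-watered. Post-emerge: sown 8–21 d before, 2–3 leaf stage, + 0.25% v/v NIS, bottom-watered. Acetone, 187 l/ha track spray, 15–1000 g ai/ha. 0–100 injury score, day 14.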

[2] = test system: barnyardgrass (Echinochloa crus-galli, ECHCG); assay: as above; details: phytotoxicity rating 0-100, 14 days after application
Method in brief: (§2)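 Herbicidal damage is scored 0 (none) to 100 (complete plant death) two weeks after a simulated field spray. Rates span 15–1000 g ai/ha, delivered in acetone at 187 l/ha. For post-emergence treatments, plants have 2–3 leaves and the spray carries 0.25% v/v non-ionic surfactant.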

[3] = test system: common ragweed (Ambrosia artemisizfolia L., AMBEL); assay: as above; details: phytotoxicity rating 0-100, 14 days after application
Method in brief: as §2

[4] = test system: green foxtail (Setaria viridis, SETVI); assay: as above; details: phytotoxicity rating 0-100, 14 days after application
Method in brief: as §2

[5] = test system: ivyleaf morningglory (Ipomoea hederacea, IPOHE); assay: as above; details: phytotoxicity rating 0-100, 14 days after application
Method in brief: as §2

[6] = test system: johnsongrass (Sorghum halepense, SORHA); assay: as above; details: phytotoxicity rating 0-100, 14 days after application
Method in brief: as §2

[7] = test system: lambsquarters (Chenopodium album, CHEAL); assay: as above; details: phytotoxicity rating 0-100, 14 days after application
Method in brief: as §2

[8] = test system: large crabgrass (Digitaria sanguinalis, DIGSA); assay: as above; details: phytotoxicity rating 0-100, 14 days after application
Method in brief: as §2

[9] = test system: sicklepod (Cassia obtusifolia, CASOB); assay: as above; details: phytotoxicity rating 0-100, 14 days after application
Method in brief: as §2

[10] = test system: velvetleaf (Abutilon theophrasti, ABUTH); assay: as above; details: phytotoxicity rating 0-100, 14 days after application
Method in brief: as §2

[11] = test system: field corn (Zea mays L., var. Dekalb 535, CORN); assay: Pre-emerge test, crop safety; details: crop damage rating 0-100, 14 days after application
Method in brief: as §1

[12] = test system: upland rice (Oryza sp., var. Tebonnet, RICE); assay: Pre-emerge test, crop safety; details: crop damage rating 0-100, 14 days after application
Method in brief: as §1

[13] = test system: barnyardgrass (Echinochloa crus-galli, ECHCG); assay: Post-emerge test, greenhouse herbicide activity screening; details: post-emerge, 14 days after application, rating scale 0-100
Method in brief: (§3)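 Compounds in acetone were track-sprayed at 15–1000 g ai/ha: pre-emergence onto soil sown the previous day, then top-watered to incorporate and later bottom-watered; post-emergence onto 2–3 leaf plants with 0.25% v/v surfactant, bottom-watered only. Ratings on a 0–100 phytotoxicity scale were taken at day 14.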

[14] = test system: common ragweed (Ambrosia artemisizfolia L., AMBEL); assay: as above; details: post-emerge, 14 days after application, rating scale 0-100
Method in brief: as §3

[15] = test system: green foxtail (Setaria viridis, SETVI); assay: as above; details: post-emerge, 14 days after application, rating scale 0-100
Method in brief: as §3

[16] = test system: ivyleaf morningglory (Ipomoea hederacea, IPOHE); assay: as above; details: post-emerge, 14 days after application, rating scale 0-100
Method in brief: as §3

[17] = test system: johnsongrass (Sorghum halepense, SORHA); assay: as above; details: post-emerge, 14 days after application, rating scale 0-100
Method in brief: as §3

[18] = test system: lambsquarters (Chenopodium album, CHEAL); assay: as above; details: post-emerge, 14 days after application, rating scale 0-100
Method in brief: as §3

[19] = test system: large crabgrass (Digitaria sanguinalis, DIGSA); assay: as above; details: post-emerge, 14 days after application, rating scale 0-100
Method in brief: as §3

[20] = test system: redroot pigweed (Amaranthus retroflexus, AMARE); assay: as above; details: post-emerge, 14 days after application
Method in brief: as §3

[21] = test system: sicklepod (Cassia obtusifolia, CASOB); assay: as above; details: post-emerge, 14 days after application, rating scale 0-100
Method in brief: as §3

[22] = test system: velvetleaf (Abutilon theophrasti, ABUTH); assay: as above; details: post-emerge, 14 days after application, rating scale 0-100
Method in brief: as §3

[23] = test system: field corn (Zea mays L., var. Dekalb 535, CORN); assay: Post-emerge test, crop safety; details: post-emerge, 14 days after application, rating scale 0-100
Method in brief: as §2

[24] = test system: upland rice (Oryza sp., var. Tebonnet, RICE); assay: Post-emerge test, crop safety; details: post-emerge, 14 days after application, rating scale 0-100
Method in brief: as §2

For `Cn1c(C(F)(F)F)cc(=O)n(-c2ccc(C(N)=S)cc2NC(=O)c2ccc3ccccc3c2)c1=O` [2-205], the “Pre-emerge Herbicidal Activity AMARE” value ([1]; 63 g ai/ha) was 100, the “Pre-emerge Herbicidal Activity AMARE” value ([1]; 250 g ai/ha) was 100 and the “Pre-emerge Herbicidal Activity ECHCG” value ([2]; 63 g ai/ha) was 80. For the same compound, the “Pre-emerge Herbicidal Activity ECHCG” value ([2]; 250 g ai/ha) was 99, the “Pre-emerge Herbicidal Activity AMBEL” value ([3]; 63 g ai/ha) was 80 and the “Pre-emerge Herbicidal Activity AMBEL” value ([3]; 250 g ai/ha) was 90. For the same compound, the “Pre-emerge Herbicidal Activity SETVI” value ([4]; 63 g ai/ha) was 70, the “Pre-emerge Herbicidal Activity SETVI” value ([4]; 250 g ai/ha) was 100 and the “Pre-emerge Herbicidal Activity IPOHE” value ([5]; 63 g ai/ha) was 0. The “Pre-emerge Herbicidal Activity IPOHE” value ([5]; 250 g ai/ha) was 95, the “Pre-emerge Herbicidal Activity SORHA” value ([6]; 63 g ai/ha) was 40 and the “Pre-emerge Herbicidal Activity SORHA” value ([6]; 250 g ai/ha) was 85. The “Pre-emerge Herbicidal Activity CHEAL” value ([7]; 63 g ai/ha) was 100, the “Pre-emerge Herbicidal Activity CHEAL” value ([7]; 250 g ai/ha) was 100 and the “Pre-emerge Herbicidal Activity DIGSA” value ([8]; 63 g ai/ha) was 70. The “Pre-emerge Herbicidal Activity DIGSA” value ([8]; 250 g ai/ha) was 99, the “Pre-emerge Herbicidal Activity CASOB” value ([9]; 63 g ai/ha) was 0 and the “Pre-emerge Herbicidal Activity CASOB” value ([9]; 250 g ai/ha) was 40. The “Pre-emerge Herbicidal Activity ABUTH” value ([10]; 63 g ai/ha) was 100, the “Pre-emerge Herbicidal Activity ABUTH” value ([10]; 250 g ai/ha) was 100 and the “Pre-emerge Herbicidal Activity CORN” value ([11]; 63 g ai/ha) was 0. The “Pre-emerge Herbicidal Activity CORN” value ([11]; 250 g ai/ha) was 50, the “Pre-emerge Herbicidal Activity RICE” value ([12]; 63 g ai/ha) was 20 and the “Pre-emerge Herbicidal Activity RICE” value ([12]; 250 g ai/ha) was 70. The “phytotoxicity rating ECHCG” value ([13]; 63 g ai/ha) was 0, the “phytotoxicity rating ECHCG” value ([13]; 250 g ai/ha) was 0 and the “phytotoxicity rating AMBEL” value ([14]; 63 g ai/ha) was 70. The “phytotoxicity rating AMBEL” value ([14]; 250 g ai/ha) was 100, the “phytotoxicity rating SETVI” value ([15]; 63 g ai/ha) was 10 and the “phytotoxicity rating SETVI” value ([15]; 250 g ai/ha) was 10. The “phytotoxicity rating IPOHE” value ([16]; 63 g ai/ha) was 100, the “phytotoxicity rating IPOHE” value ([16]; 250 g ai/ha) was 70 and the “phytotoxicity rating SORHA” value ([17]; 63 g ai/ha) was 0. For the same compound, the “phytotoxicity rating SORHA” value ([17]; 250 g ai/ha) was 0, the “phytotoxicity rating CHEAL” value ([18]; 63 g ai/ha) was 70 and the “phytotoxicity rating CHEAL” value ([18]; 250 g ai/ha) was 70. The “phytotoxicity rating DIGSA” value ([19]; 63 g ai/ha) was 10, the “phytotoxicity rating DIGSA” value ([19]; 250 g ai/ha) was 10 and the “phytotoxicity rating AMARE” value ([20]; 63 g ai/ha, rating scale 0-100 (0 no damage, 100 complete death)) was 90. For the same compound, the “phytotoxicity rating AMARE” value ([20]; 250 g ai/ha, rating scale 0-100) was 40, the “phytotoxicity rating CASOB” value ([21]; 63 g ai/ha) was 90 and the “phytotoxicity rating CASOB” value ([21]; 250 g ai/ha) was 100. For the same compound, the “phytotoxicity rating ABUTH” value ([22]; 63 g ai/ha) was 100, the “phytotoxicity rating ABUTH” value ([22]; 250 g ai/ha) was 100 and the “phytotoxicity rating CORN (crop damage)” value ([23]; 63 g ai/ha) was 10. The “phytotoxicity rating CORN (crop damage)” value ([23]; 250 g ai/ha) was 20, the “phytotoxicity rating RICE (crop damage)” value ([24]; 63 g ai/ha) was 30 and the “phytotoxicity rating RICE (crop damage)” value ([24]; 250 g ai/ha) was 30.
